Data set [1] is described as follows: Toxicity in Sprague-Dawley rat assessed as effect on amount of respiration at 19 mg/kg administered as continuous infusion followed by maintenance at 3.25 mg/kg/min for 0 to 20 mins, 2.5 mg/kg/min for 20 to 30 mins and 2 mg/kg/min for 30 to 60 mins and measured every 5 mins for 60 mins by whole-body plethysmography. It is filed as organism-based. Conditions: in vivo, other, 1 h, route par.

Data set [2] in a line: Stability in rat plasma assessed as half life at 1 mg/ml measured upto 360 mins by HPLC analysis. The class given is ADME, cell-free.
The nature of data set [3]: Toxicity in ICR mouse assessed as histopathological changes in liver at 1.5 times ED50, iv administered as single dose and measured after 14 days by H and E staining based analysis. The class given is organism-based. Conditions: in vivo, 336 h, time 14 day.
Data set [4] deals with Rattus norvegicus. Put plainly: Anesthesia recovery in Sprague-Dawley rat assessed as effect on recovery time of righting reflex at 19 mg/kg administered as continuous infusion followed by maintenance at 3.25 mg/kg/min for 0 to 20 mins, 2.5 mg/kg/min for 20 to 30 mins and 2 mg/kg/min for 30 to 60 mins. The class given is functional, organism-based. Conditions: route par.
The nature of data set [5]: Toxicity in ICR mouse assessed as effect on biochemical parameters at 1.5 times ED50, iv administered as single dose. The class given is organism-based. Conditions: in vivo.
Data set [6] can be described thus: Toxicity in Sprague-Dawley rat assessed as alterations in QRS complex duration at 19 mg/kg administered as continuous infusion followed by maintenance at 3.25 mg/kg/min for 0 to 20 mins, 2.5 mg/kg/min for 20 to 30 mins and 2 mg/kg/min for 30 to 60 mins by electrocardiogram recording. The class given is organism-based. Conditions: in vivo, other, 1 h, route par.

A short description of data set [7]: Toxicity in Sprague-Dawley rat assessed as effect on alpha-HBDH level at 19 mg/kg administered as continuous infusion followed by maintenance at 3.25 mg/kg/min for 0 to 20 mins, 2.5 mg/kg/min for 20 to 30 mins and 2 mg/kg/min for 30 to 60 mins. To be noted: in vivo, other, 1 h, route par. It is filed as organism-based.
Data set [8] is described as follows: Toxicity in Sprague-Dawley rat assessed as change in P-R interval at 19 mg/kg administered as continuous infusion followed by maintenance at 3.25 mg/kg/min for 0 to 20 mins, 2.5 mg/kg/min for 20 to 30 mins and 2 mg/kg/min for 30 to 60 mins and measured between 30 to 50 mins by electrocardiogram recording. To be noted: in vivo, other, time 30-50 min, route par. The class given is organism-based.

The subject of data set [9] is Mus musculus. Kind of data set: Antiseizure activity in iv dosed ICR mouse model of PTZ-induced acute seizure assessed as prolongation of latency time before onset of first convulsion preadministered for 1 min followed by PTZ treatment. The class given is functional, organism-based.
A short description of data set [10]: Toxicity in Sprague-Dawley rat assessed as histopathological changes in kidney at 19 mg/kg administered as continuous infusion followed by maintenance at 3.25 mg/kg/min for 0 to 20 mins, 2.5 mg/kg/min for 20 to 30 mins and 2 mg/kg/min for 30 to 60 mins and measured after 14 days by H and E staining based analysis. It is filed as organism-based. Conditions: in vivo, other, 336 h, route par, time 14 day.

Data set [11] concerns the target Cytochrome P450 3A4 (Homo sapiens, UniProt P08684). Put plainly: Inhibition of CYP3A4 (unknown origin) using midazolam as substrate at 10 uM. It is filed as ADME.
For data set [12], the target named is Cytochrome P450 2C9 (Homo sapiens, UniProt P11712). Put plainly: Inhibition of CYP2C9 (unknown origin) using diclofenac as substrate at 10 uM. It is filed as ADME.
Cytochrome P450 2C9, sequence (P11712 whole entry, the tested form may be a part): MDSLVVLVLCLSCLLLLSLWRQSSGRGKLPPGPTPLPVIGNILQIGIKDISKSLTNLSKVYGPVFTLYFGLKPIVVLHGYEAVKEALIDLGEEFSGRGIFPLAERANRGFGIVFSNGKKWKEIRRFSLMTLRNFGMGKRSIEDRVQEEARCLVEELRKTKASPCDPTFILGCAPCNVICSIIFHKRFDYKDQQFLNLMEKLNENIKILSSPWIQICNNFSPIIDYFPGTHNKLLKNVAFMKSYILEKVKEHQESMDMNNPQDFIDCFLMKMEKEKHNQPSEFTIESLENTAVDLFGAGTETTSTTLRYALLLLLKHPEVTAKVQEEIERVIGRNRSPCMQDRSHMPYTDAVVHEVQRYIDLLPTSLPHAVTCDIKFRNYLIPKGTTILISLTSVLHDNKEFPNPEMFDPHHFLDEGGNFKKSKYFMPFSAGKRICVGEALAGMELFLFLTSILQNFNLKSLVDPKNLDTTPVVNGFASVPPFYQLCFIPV
Data set [13] is described as follows: Toxicity in Sprague-Dawley rat assessed as ALT level at 19 mg/kg administered as continuous infusion followed by maintenance at 3.25 mg/kg/min for 0 to 20 mins, 2.5 mg/kg/min for 20 to 30 mins and 2 mg/kg/min for 30 to 60 mins. It is filed as organism-based. To be noted: in vivo, other, 1 h, route par.
The nature of data set [14]: Toxicity in ICR mouse assessed as histopathological changes in kidney at 1.5 times ED50, iv administered as single dose and measured after 14 days by H and E staining based analysis. It is filed as organism-based. To be noted: in vivo, 336 h, time 14 day.
Data set [15] has as its target T1, Cocaine esterase (Homo sapiens, UniProt O00748).
T1 sequence (O00748 whole entry): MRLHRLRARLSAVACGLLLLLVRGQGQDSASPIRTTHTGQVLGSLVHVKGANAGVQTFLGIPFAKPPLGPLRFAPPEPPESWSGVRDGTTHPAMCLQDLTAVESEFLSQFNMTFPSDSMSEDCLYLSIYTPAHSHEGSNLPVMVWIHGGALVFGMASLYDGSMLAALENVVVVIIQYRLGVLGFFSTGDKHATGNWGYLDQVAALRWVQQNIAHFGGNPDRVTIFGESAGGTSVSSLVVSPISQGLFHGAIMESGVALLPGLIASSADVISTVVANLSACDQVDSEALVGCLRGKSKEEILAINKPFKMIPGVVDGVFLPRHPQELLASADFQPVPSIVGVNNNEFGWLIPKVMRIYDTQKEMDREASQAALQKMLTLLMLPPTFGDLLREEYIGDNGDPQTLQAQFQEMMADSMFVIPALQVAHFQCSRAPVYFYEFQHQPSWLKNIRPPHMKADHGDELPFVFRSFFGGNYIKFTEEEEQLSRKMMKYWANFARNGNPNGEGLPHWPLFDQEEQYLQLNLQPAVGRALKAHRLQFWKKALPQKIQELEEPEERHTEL
Put plainly: Drug metabolism assessed as human CES2-mediated propofol release at 1 mg/ml measured upto 240 mins by LC-MS analysis. The class given is ADME. Conditions: 4 h.

The nature of data set [16]: Drug metabolism in mouse liver microsomes assessed as propofol release by measuring half life at 1 mg/ml measured upto 360 mins by LC-MS analysis. The class given is ADME, Microsome. Conditions: 6 h. For orientation: Microsomes from liver hold many membrane-bound enzymes, among them those of drug oxidation.
Data set [17] can be described thus: Toxicity in ICR mouse assessed as survival rate at 1.5 times ED50 administered intravenously. To be noted: in vivo, route iv.
Data set [18] addresses Sodium channel protein type 5 subunit alpha (Homo sapiens, UniProt Q14524). Kind of data set: Inhibition of Nav1.5 channel (unknown origin) at resting state at -120 mV conditioning pulse by voltage clamp electrophysiological recording. It is filed as toxicity.
Data set [19] addresses GABA-A receptor; alpha-1/beta-2/gamma-2 (Homo sapiens) (UniProt P14867+P47870+P18507). Kind of data set: Agonist activity at alpha1beta2gamma2 GABA-A receptor (unknown origin) at 10 uM at -70 mV holding potential by electrophysiological recording. It is filed as protein-complex assay.
Data set [20] concerns Rattus norvegicus. Put plainly: Analgesic activity in Sprague-Dawley rat model of thermal nociception assessed as increase in hind-paw withdrawal latency at 19 mg/kg administered as continuous infusion followed by maintenance at 3.25 mg/kg/min for 0 to 20 mins, 2.5 mg/kg/min for 20 to 30 mins and 2 mg/kg/min for 30 to 60 mins. The class given is functional, organism-based. To be noted: route par, TDE = time-dependent effect.

Data set [21] deals with Sodium channel protein type 9 subunit alpha (Homo sapiens, UniProt Q15858). Put plainly: Inhibition of Nav1.7 channel (unknown origin) at half inactivation state at -120 mV conditioning pulse by voltage clamp electrophysiological recording.
Data set [22] concerns the target Sodium channel protein type 10 subunit alpha (Homo sapiens, UniProt Q9Y5Y9). Kind of data set: Inhibition of Nav1.8 channel (unknown origin) at resting state at -120 mV conditioning pulse by voltage clamp electrophysiological recording.
The nature of data set [23]: Toxicity in Sprague-Dawley rat assessed as effect on creatinine level at 19 mg/kg administered as continuous infusion followed by maintenance at 3.25 mg/kg/min for 0 to 20 mins, 2.5 mg/kg/min for 20 to 30 mins and 2 mg/kg/min for 30 to 60 mins. Conditions: in vivo, other, 1 h, route par. It is filed as organism-based.

Experimental findings from ChEMBL document CHEMBL5523756, “Molecular Transformers: Adaptive Multitarget Ligands for Esterase-Induced Transition from Analgesics to Anesthetics” (J Med Chem, 2024) are described below.

Active and inactive are the calls of the source. A value given as a limit tells only on which side of the number the result lay.

Cytochrome P450 3A4, sequence (P08684 whole entry): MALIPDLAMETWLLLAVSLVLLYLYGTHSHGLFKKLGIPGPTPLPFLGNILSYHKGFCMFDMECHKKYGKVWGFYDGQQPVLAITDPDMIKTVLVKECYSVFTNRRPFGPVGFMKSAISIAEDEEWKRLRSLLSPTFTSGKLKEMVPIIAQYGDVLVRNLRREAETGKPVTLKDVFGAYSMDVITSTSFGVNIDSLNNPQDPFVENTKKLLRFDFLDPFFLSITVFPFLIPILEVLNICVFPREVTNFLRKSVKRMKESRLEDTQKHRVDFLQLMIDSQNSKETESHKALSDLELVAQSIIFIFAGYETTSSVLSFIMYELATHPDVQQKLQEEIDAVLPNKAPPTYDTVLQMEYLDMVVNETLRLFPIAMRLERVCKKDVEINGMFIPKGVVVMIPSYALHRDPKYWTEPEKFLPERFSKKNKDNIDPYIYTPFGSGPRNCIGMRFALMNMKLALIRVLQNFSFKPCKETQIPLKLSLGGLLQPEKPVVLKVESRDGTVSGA
Sodium channel protein type 5 subunit alpha, sequence (Q14524 whole entry): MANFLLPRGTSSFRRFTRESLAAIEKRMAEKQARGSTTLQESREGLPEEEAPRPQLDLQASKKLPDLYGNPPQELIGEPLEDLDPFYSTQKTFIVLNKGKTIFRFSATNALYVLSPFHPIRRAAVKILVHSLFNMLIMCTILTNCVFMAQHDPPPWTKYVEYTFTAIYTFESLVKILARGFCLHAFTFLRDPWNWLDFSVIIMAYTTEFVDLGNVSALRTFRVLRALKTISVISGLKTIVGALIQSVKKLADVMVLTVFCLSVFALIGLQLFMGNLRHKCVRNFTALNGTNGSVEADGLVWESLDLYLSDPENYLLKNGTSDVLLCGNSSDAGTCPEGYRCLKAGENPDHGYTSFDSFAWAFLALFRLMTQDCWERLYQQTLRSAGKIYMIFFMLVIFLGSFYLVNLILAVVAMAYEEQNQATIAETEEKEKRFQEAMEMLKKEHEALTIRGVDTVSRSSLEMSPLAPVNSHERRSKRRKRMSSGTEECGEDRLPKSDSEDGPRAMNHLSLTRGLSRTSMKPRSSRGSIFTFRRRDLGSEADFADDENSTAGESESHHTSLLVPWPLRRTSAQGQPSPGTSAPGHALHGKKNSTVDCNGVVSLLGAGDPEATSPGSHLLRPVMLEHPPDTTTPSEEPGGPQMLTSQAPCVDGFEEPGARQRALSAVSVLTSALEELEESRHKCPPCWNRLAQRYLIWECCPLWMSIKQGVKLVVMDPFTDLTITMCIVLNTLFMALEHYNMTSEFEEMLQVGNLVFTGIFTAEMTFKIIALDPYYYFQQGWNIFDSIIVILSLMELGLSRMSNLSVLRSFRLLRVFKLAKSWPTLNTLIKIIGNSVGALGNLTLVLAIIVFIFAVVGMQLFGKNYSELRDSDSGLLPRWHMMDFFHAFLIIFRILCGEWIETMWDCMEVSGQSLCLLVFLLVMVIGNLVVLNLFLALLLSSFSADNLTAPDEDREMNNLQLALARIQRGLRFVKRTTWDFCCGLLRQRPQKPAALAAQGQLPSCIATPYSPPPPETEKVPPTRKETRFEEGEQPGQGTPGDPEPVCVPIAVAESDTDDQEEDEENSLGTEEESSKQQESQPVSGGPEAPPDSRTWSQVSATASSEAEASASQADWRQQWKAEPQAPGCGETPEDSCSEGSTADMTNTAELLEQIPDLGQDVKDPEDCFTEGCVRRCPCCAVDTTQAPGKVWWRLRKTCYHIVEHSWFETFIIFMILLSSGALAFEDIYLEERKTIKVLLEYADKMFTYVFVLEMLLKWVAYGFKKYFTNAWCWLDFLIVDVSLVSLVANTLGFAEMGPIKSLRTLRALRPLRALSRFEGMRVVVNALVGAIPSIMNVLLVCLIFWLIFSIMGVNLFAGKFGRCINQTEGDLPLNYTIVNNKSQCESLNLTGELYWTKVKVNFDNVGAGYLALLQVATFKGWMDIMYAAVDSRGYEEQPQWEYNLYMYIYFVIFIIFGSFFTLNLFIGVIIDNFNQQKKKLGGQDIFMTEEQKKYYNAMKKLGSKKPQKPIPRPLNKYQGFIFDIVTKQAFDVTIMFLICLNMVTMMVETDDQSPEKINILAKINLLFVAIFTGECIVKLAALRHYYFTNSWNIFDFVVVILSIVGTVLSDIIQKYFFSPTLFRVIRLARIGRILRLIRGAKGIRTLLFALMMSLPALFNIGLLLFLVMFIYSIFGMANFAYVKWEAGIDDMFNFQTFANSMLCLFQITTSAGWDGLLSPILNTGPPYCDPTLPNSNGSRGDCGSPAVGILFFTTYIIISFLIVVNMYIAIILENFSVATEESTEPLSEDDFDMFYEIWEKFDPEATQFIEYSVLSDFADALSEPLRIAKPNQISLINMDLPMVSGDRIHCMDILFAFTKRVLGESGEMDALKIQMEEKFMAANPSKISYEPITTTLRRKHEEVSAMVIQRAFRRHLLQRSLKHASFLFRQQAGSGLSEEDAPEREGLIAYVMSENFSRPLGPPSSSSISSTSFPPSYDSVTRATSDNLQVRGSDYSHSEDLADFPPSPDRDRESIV
Sodium channel protein type 10 subunit alpha, sequence (Q9Y5Y9 whole entry, the tested form may be a part): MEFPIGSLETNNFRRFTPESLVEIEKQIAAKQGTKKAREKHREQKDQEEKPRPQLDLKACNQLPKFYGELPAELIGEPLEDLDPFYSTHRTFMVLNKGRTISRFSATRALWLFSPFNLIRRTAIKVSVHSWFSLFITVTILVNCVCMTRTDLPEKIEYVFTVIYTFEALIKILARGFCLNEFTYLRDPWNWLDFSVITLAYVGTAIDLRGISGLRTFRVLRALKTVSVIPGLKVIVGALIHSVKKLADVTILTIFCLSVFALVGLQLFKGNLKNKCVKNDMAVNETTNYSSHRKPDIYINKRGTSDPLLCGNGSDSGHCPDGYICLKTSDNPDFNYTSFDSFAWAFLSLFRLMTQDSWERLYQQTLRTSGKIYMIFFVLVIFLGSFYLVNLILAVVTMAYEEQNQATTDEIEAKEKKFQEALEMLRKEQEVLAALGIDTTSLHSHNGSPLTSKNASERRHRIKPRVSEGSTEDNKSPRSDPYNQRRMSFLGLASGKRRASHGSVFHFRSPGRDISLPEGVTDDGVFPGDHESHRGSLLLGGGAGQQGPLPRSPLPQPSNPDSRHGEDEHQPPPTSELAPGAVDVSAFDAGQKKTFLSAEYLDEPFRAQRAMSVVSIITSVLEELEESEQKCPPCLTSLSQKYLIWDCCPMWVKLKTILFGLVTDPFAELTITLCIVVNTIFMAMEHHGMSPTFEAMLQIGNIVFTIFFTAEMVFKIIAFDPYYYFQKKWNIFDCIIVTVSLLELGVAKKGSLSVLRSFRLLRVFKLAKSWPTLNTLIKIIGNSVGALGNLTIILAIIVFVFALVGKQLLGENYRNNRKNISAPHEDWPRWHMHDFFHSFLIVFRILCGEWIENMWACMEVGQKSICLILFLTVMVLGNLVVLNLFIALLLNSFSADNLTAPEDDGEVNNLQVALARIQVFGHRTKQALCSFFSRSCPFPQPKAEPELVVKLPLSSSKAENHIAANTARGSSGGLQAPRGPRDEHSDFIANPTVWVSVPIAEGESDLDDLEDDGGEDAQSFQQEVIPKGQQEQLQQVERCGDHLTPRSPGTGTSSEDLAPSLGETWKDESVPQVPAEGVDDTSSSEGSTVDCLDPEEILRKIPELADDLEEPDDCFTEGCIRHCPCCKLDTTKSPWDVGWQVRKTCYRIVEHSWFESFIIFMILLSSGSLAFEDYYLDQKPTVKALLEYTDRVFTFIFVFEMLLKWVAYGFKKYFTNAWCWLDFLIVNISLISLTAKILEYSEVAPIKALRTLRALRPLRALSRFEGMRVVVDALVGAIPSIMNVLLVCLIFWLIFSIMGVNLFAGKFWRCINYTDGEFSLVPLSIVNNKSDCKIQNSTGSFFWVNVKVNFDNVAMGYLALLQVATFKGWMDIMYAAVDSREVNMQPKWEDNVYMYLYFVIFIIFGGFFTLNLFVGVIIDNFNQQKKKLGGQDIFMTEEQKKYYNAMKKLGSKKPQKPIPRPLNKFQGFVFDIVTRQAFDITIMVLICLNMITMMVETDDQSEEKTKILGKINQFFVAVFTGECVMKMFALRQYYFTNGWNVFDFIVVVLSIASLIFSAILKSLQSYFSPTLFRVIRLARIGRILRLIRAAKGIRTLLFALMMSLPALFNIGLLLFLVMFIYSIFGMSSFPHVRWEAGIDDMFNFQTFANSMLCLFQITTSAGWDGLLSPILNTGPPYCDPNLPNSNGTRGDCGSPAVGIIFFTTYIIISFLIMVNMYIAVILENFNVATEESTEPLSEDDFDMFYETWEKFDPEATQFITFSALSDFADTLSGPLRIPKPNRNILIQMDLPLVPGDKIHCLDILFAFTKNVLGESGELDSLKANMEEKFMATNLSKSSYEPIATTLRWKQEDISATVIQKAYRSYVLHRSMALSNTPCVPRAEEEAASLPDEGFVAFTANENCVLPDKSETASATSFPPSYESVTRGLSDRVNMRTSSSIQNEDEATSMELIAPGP

As usually defined, the half-life is the time needed for the level to fall by half in the phase considered. The IC50 is the midpoint of a concentration-inhibition curve. Read a low IC50 as inhibition by little substance. As for `CCN(CC)CCOC(=O)Oc1c(C(C)C)cccc1C(C)C.Cl`, the Activity result in data set [1] is “Non-Toxic”; in data set [3] it was “Non-Toxic”; in data set [5], “Non-Toxic”; in data set [6], “Non-Toxic”; in data set [7], “Non-Toxic”; in data set [8] it was “Toxic”. The Activity result is “Non-Toxic” in [10]; 52.47 U/L in data set [13]; “Non-Toxic” in [14]; “Tde” in [20]; “Non-Toxic” in [23]. For the same compound, the half-life at 1 mg/ml in [2] was 1.7 min. The outcome in data set [4] and in data set [9] was Active. For the same compound, the “inhibition (INH)” value in [11] and in [12] was “Not Active” each time. Moreover, in data set [15], the Drug metabolism result was “Metabolite_Detected”. Also, the t1/2 in [16] turned out to be 45.98 min. Besides, the survival in data set [17] turned out to be 100%. Further, the IC50 in data set [18] is 23.5 µM; in [21], 7.43 µM; in data set [22] it was > 30 µM. Moreover, the result in data set [19] was inactive.
